Assay results as given in patent publication US20250236608A1, “EGFR INHIBITORS” (Blueprint Medicines Corporation, priority 2022, published 2025).
pIC50: −log10 of the molar value.

Legend:
EGFR (d746-750) = EGFR (d746-750) (Homo sapiens (Human), UniProt P00533, DEL746-750); assay: Biochemical EGFR inhibition assay, EGFR (d746-750); settings: Caliper mobility shift; 1.0 mM ATP or ATP Km; read-out: Enz EGFR_Exon19-del746-750 IC50
EGFR L858R = EGFR L858R (Homo sapiens (Human), UniProt P00533, L858R); assay: Biochemical EGFR inhibition assay, EGFR L858R; settings: Caliper mobility shift; 1.0 mM ATP or ATP Km; read-out: Enz EGFR_L858R IC50
[1] = molecular target: pEGFR (Tyr1068) in PC-9 cells (Ex19Del) (Homo sapiens (Human), UniProt P00533, DEL746-750); assay: PC-9 pEGFR AlphaLISA assay; type: cell-based; settings: 4 hours incubation, p-EGFR (Tyr1068) AlphaLISA, read-out: Ext pEGFR_PC-9 Ex19Del IC50
Procedure, shortened: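 Phospho-EGFR (Tyr1068) was quantified by AlphaLISA SureFire Ultra in lysates of PC-9 cells exposed for 4 h to compound (4-fold, 10-point dilutions).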

pEGFR (Tyr1068) in PC-9 cells (Ex19Del), sequence (P00533 other isoform, or with tags, fused parts or gaps del 746-750): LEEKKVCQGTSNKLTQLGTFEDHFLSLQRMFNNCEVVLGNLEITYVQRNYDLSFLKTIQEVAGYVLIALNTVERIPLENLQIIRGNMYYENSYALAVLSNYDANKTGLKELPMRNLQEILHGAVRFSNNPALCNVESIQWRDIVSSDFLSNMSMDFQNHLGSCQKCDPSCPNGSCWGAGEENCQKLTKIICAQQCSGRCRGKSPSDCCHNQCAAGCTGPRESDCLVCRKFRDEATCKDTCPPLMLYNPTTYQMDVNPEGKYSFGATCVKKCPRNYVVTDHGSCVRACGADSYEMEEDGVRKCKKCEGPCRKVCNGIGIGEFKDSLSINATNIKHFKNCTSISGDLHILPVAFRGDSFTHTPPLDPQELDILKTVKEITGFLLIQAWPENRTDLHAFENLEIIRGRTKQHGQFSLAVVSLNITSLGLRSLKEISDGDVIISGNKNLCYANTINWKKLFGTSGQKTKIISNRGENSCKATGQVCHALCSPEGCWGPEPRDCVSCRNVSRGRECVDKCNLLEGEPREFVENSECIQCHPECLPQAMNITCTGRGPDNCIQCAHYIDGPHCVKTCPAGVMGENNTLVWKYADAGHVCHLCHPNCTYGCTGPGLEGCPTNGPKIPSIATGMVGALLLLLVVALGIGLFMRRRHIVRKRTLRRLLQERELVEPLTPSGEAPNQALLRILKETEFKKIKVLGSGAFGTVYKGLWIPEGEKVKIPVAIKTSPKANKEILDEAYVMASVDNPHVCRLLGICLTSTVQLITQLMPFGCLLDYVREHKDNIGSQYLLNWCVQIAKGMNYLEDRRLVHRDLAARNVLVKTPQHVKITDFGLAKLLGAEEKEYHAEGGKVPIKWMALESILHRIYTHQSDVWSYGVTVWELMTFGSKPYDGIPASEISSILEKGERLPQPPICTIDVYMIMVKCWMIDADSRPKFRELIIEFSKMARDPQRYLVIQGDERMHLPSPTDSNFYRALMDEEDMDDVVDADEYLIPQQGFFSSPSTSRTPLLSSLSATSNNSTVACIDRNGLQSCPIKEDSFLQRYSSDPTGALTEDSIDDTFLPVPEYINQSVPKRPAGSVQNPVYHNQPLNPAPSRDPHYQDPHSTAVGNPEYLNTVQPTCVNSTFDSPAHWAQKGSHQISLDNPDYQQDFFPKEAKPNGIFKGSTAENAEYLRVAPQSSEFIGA
EGFR (d746-750), sequence (P00533 other isoform, or with tags, fused parts or gaps del 1-694/del 746-750 limits assumed): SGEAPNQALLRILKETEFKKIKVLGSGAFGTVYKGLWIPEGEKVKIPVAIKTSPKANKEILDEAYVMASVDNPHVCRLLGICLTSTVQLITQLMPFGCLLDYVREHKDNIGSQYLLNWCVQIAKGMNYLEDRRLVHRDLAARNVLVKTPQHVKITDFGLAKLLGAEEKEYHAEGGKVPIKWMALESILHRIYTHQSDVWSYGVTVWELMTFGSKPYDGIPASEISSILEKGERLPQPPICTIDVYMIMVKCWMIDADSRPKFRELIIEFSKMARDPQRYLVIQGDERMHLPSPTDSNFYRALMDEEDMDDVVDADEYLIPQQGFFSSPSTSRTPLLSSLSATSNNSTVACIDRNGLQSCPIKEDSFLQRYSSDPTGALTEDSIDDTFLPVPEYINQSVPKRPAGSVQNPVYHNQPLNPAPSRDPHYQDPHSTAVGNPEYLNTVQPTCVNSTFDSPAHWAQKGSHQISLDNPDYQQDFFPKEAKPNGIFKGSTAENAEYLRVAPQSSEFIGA
EGFR L858R, sequence (P00533 25-1210 L858R): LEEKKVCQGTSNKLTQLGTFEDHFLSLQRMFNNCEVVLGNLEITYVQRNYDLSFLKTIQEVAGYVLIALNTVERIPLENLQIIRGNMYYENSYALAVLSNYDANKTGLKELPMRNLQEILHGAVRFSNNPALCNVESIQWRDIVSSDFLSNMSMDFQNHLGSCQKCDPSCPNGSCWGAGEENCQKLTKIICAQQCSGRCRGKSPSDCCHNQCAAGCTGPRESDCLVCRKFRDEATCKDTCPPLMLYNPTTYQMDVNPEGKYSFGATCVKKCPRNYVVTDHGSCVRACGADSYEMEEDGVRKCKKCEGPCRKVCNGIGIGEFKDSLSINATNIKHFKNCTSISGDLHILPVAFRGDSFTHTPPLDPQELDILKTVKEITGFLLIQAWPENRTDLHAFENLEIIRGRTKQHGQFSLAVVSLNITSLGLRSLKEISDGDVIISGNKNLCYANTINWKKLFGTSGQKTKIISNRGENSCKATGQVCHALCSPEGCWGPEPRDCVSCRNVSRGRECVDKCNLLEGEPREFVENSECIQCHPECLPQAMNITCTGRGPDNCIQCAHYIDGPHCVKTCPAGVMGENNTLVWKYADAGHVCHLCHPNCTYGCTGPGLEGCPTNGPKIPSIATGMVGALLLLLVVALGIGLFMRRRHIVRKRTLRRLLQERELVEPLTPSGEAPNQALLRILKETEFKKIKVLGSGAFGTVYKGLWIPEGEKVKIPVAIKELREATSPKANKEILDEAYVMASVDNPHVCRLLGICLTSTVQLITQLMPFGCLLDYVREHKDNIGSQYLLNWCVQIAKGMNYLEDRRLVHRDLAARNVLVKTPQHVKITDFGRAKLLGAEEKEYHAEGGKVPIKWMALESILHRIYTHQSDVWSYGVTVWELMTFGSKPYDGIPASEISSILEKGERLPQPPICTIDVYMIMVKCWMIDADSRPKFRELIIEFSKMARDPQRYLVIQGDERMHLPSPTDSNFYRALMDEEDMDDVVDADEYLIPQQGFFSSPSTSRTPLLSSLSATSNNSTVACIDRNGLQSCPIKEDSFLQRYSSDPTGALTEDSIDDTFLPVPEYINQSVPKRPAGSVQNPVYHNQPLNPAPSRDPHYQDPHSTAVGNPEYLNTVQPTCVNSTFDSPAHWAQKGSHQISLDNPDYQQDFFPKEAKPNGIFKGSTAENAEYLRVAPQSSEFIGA

Structure (SMILES)	pIC50 (EGFR (d746-750))	pIC50 (EGFR L858R)	pIC50 [1]
Cn1cc(-c2ncnc3cc(OC(F)F)c(NC(=O)C4CC4)cc23)c(-c2ccccc2)n1 [Example 279, N-(7-(difluoromethoxy)-4-(1-methyl-3-phenyl-1H-pyrazol-4-yl)quinazolin-6-yl)cyclopropanecarboxamide]	8.74	8.48	8.19
CCn1cc([C@H](C)Oc2nc3c(-c4cn(C)nc4-c4ccccc4)ncnc3cc2OC)nn1 [Example 36, (S)-6-(1-(1-ethyl-1H-1,2,3-triazol-4-yl)ethoxy)-7-methoxy-4-(1-methyl-3-phenyl-1H-pyrazol-4-yl)pyrido[3,2-d]pyrimidine]	8.49	8.01	7.85
COc1cc2ncnc(-c3cn(C)nc3-c3ccccc3)c2nc1NC(=O)C12CC(C1)C2 [Example 309, N-(7-methoxy-4-(1-methyl-3-phenyl-1H-pyrazol-4-yl)pyrido[3,2-d]pyrimidin-6-yl)bicyclo[1.1.1]pentane-1-carboxamide]	8.72	8.51	8.55
[2H]C([2H])([2H])n1ncc(-c2ncnc3cc(OC)c(NC(=O)C4(C(F)(F)F)CC4)nc23)c1-c1ccccc1 [Example 492]	7.33	7.15	6.20
Cn1cc(-c2ncnc3cc(C(F)(F)F)c(NC(=O)C45COCC4C5)nc23)c(-c2ccccc2)n1 (stereo not drawn) [Example 483, N-(4-(1-methyl-3-phenyl-1H-pyrazol-4-yl)-7-(trifluoromethyl)pyrido[3,2-d]pyrimidin-6-yl)-3-oxabicyclo[3.1.0]hexane-1-carboxamide]	6.52	6.13	5.77
COc1cc2ncnc(-c3cn(C)nc3-c3ccccc3)c2cc1OC(=O)N1CCOCC1(C)C [Example 81, 7-methoxy-4-(1-methyl-3-phenyl-1H-pyrazol-4-yl)quinazolin-6-yl 3,3-dimethylmorpholine-4-carboxylate]	8.66	8.21	8.28
COc1cc2ncnc(-c3cn(C)nc3-c3ccccc3)c2nc1O[C@H](C)c1cocn1 [Example 40, (R)-4-(1-((7-methoxy-4-(1-methyl-3-phenyl-1H-pyrazol-4-yl)pyrido[3,2-d]pyrimidin-6-yl)oxy)ethyl) oxazole]	8.54	8.38	8.82
COc1cc2ncnc(-c3cn(C)nc3-c3ccccc3)c2cc1OC(=O)N1CCN(C)CC1C (stereo not drawn) [Example 57, 7-methoxy-4-(1-methyl-3-phenyl-1H-pyrazol-4-yl)quinazolin-6-yl 2,4-dimethylpiperazine-1-carboxylate]	8.77	8.64	8.66
COc1cc2ncnc(-c3cnn(CC(F)F)c3-c3ccc(F)cc3)c2cc1C1(O)CC1 [Example 490]	6.63	7.09	6.08
COc1cc2ncnc(-c3cn(C)nc3-c3ccccc3)c2cc1OC(=O)N1CCO[C@H](C)[C@@H]1C [Example 94, 7-methoxy-4-(1-methyl-3-phenyl-1H-pyrazol-4-yl)quinazolin-6-yl (2R,3S)-2,3-dimethylmorpholine-4-carboxylate]	8.49	8.19	7.95
COc1cc2ncnc(-c3cn(C)nc3-c3ccccc3)c2cc1OC(=O)N1[C@@H](C)CN(C)C[C@@H]1C [Example 79, 7-methoxy-4-(1-methyl-3-phenyl-1H-pyrazol-4-yl)quinazolin-6-yl (2S,6S)-2,4,6-trimethylpiperazine-1-carboxylate]	8.51	8.19	8.02
COc1cc2ncnc(-c3cn(C)nc3-c3ccccc3)c2cc1OC1CCOC1 (stereo not drawn) [Example 11, 7-methoxy-4-(1-methyl-3-phenyl-1H-pyrazol-4-yl)-6-((tetrahydrofuran-3-yl)oxy)quinazoline]	8.62	8.54	8.29
COc1cc2ncnc(-c3cn(C)nc3-c3ccccc3)c2cc1OC(=O)N1CCN2CCCC2C1 (stereo in doubt) [Example 84, 7-methoxy-4-(1-methyl-3-phenyl-1H-pyrazol-4-yl)quinazolin-6-yl (S)-hexahydropyrrolo[1,2-a]pyrazine-2(1H)-carboxylate]	8.48	8.31	8.19

More lines, in order of rising pIC50 (EGFR (d746-750)), values ahead:

pIC50 (EGFR (d746-750))	pIC50 (EGFR L858R)	pIC50 [1]	Structure (SMILES)
8.77	8.46	8.43	COc1cc2ncnc(-c3cn(C)nc3-c3ccccc3)c2cc1NC(=O)c1ccc(C2CC2)nc1 [Example 229, 6-cyclopropyl-N-(7-methoxy-4-(1-methyl-3-phenyl-1H-pyrazol-4-yl)quinazolin-6-yl) nicotinamide]
8.77	8.54	8.19	COc1cc2ncnc(-c3cn(C)nc3-c3ccccc3)c2cc1N1CCC[C@H](O)C1 [Example 164, (S)-1-(7-methoxy-4-(1-methyl-3-phenyl-1H-pyrazol-4-yl)quinazolin-6-yl) piperidin-3-ol]
8.82	8.70	8.89	CCC(=O)Nc1cc2c(-c3cn(C4CCOCC4)nc3-c3ccccc3)ncnc2cc1OC [Example 248, N-(7-methoxy-4-(3-phenyl-1-(tetrahydro-2H-pyran-4-yl)-1H-pyrazol-4-yl)quinazolin-6-yl)propionamide]
8.89	8.55	8.21	COc1cc2ncnc(-c3cn(C)nc3-c3ccccc3)c2cc1NC(=O)[C@@]12COC[C@@H]1C2 (single isomer, unassigned) [Example 261, (1R,5R)—N-(7-methoxy-4-(1-methyl-3-phenyl-1H-pyrazol-4-yl)quinazolin-6-yl)-5-methyl-3-oxabicyclo[3.1.0]hexane-1-carboxamide or (1S,5S)—N-(7-methoxy-4-(1-methyl-3-phenyl-1H-pyrazol-4-yl)quinazolin-6-yl)-3-oxabicyclo[3.1.0]hexane-1-carboxamide]
8.89	8.59	8.64	COc1cc2ncnc(-c3cn(C)nc3-c3ccc(F)cc3)c2nc1NC(=O)[C@]12C[C@H]1CN(C)C2 (single isomer, unassigned) [Example 411, (1R,5R)—N-(4-(3-(4-fluorophenyl)-1-methyl-1H-pyrazol-4-yl)-7-methoxypyrido[3,2-d]pyrimidin-6-yl)-3-methyl-3-azabicyclo[3.1.0]hexane-1-carboxamide or (1S,5S)—N-(4-(3-(4-fluorophenyl)-1-methyl-1H-pyrazol-4-yl)-7-methoxypyrido[3,2-d]pyrimidin-6-yl)-3-methyl-3-azabicyclo[3.1.0]hexane-1-carboxamide]
8.96	8.77	9.30	COc1cc2ncnc(-c3cn(CC(F)F)nc3-c3ccccc3)c2nc1NC(=O)[C@]12C[C@H]1CN(C)C2 (single isomer, unassigned) [Example 396, (1R,5R)—N-(4-(1-(2,2-difluoroethyl)-3-phenyl-1H-pyrazol-4-yl)-7-methoxypyrido[3,2-d]pyrimidin-6-yl)-3-methyl-3-azabicyclo[3.1.0]hexane-1-carboxamide or (1S,5S)—N-(4-(1-(2,2-difluoroethyl)-3-phenyl-1H-pyrazol-4-yl)-7-methoxypyrido[3,2-d]pyrimidin-6-yl)-3-methyl-3-azabicyclo[3.1.0]hexane-1-carboxamide]
9.00	7.97	8.80	COc1cc2ncnc(-c3cn(C)nc3-c3ccccc3)c2nc1O[C@@H](C)c1ncsc1C (single isomer, unassigned) [Example 54, (S)-4-(1-((7-methoxy-4-(1-methyl-3-phenyl-1H-pyrazol-4-yl)pyrido[3,2-d]pyrimidin-6-yl)oxy)ethyl)-5-methylthiazole or (R)-4-(1-((7-methoxy-4-(1-methyl-3-phenyl-1H-pyrazol-4-yl)pyrido[3,2-d]pyrimidin-6-yl)oxy)ethyl)-5-methylthiazole]
9.05	8.89	8.57	CCOc1cc2ncnc(-c3cn(CC)nc3-c3ccccc3)c2cc1[C@@H](C)O (single isomer, unassigned) [Example 108, (R)-1-(7-ethoxy-4-(1-ethyl-3-phenyl-1H-pyrazol-4-yl)quinazolin-6-yl)ethan-1-ol or (S)-1-(7-ethoxy-4-(1-ethyl-3-phenyl-1H-pyrazol-4-yl)quinazolin-6-yl)ethan-1-ol]
9.10	8.70	8.89	COc1cc2ncnc(-c3cn(C)nc3-c3ccccc3F)c2cc1NC(=O)C1(CN(C)C)CC1 [Example 188, 1-((dimethylamino)methyl)-N-(4-(3-(2-fluorophenyl)-1-methyl-1H-pyrazol-4-yl)-7-methoxyquinazolin-6-yl)cyclopropane-1-carboxamide]
9.22	9.00	9.10	COc1cc2ncnc(-c3cn(CC4CC4)nc3-c3ccccc3)c2nc1NC(=O)[C@]12C[C@H]1CN(C)C2 (single isomer, unassigned) [Example 409, (1S,5S)—N-(4-(1-(cyclopropylmethyl)-3-phenyl-1H-pyrazol-4-yl)-7-methoxypyrido[3,2-d]pyrimidin-6-yl)-3-methyl-3-azabicyclo[3.1.0]hexane-1-carboxamide or (1R,5R)—N-(4-(1-(cyclopropylmethyl)-3-phenyl-1H-pyrazol-4-yl)-7-methoxypyrido[3,2-d]pyrimidin-6-yl)-3-methyl-3-azabicyclo[3.1.0]hexane-1-carboxamide]
